Source: patent US8329674B2, “Film forming dental compositions and related methods” (3M Innovative Properties Company, priority 2007, dated 2012)
Converted amounts (≈) assume the structure as drawn.

Key:
Assay in all cases: Minimum Inhibitory Concentration (MIC) Test
Assay type in all cases: cell-based
[1] = test system: Streptococcus mutans (strain ATCC 25175); conditions: ATCC25175, S. mutans, compound emulsified in water with PLURONIC F68, 24 hours at 37° C., none = no inhibitory activity noted
Protocol: (§1) The MIC Test was carried out using successively lower concentrations of compounds. Sterile tryptic soy broth (50 microliters; TSB, available from BD Dfico, Becton, Dickinson and Company, Franklin Lakes, N.J.) was deposited into each well of a sterile polystyrene 96-well microtitcr plate. Into each well in the first (leftmost) column of the plate, there was then deposited a 50 microliter aliquot (of known concentration) of a compound (i.e., a compound of Formula I, or a pharmaceutically acceptable salt thereof, or comparative compound). A 50 microliter aliquot of the mixture in the first (leftmost) well in the first row of the plate was transferred to the second well in the first row. A 50 microliter aliquot of the mixture in the second well in the first row was then transferred to the third well in the first row. The compound was successively diluted (1:1 dilution at each step) by transferring a 50 microliter aliquot from one well into the next well, across the row of the plate. This procedure was repeated for each row of the plate. Then, an overnight culture of Streptococcus mutans (strain ATCC 25175) was diluted 1:100 into sterile tryptic soy broth. A 50 microliter aliquot of the diluted S. mutans culture (10^5 CFU) was deposited into each well of the microtiter plate. The plate was then incubated at 37° C. for 24 hours in a sealed humidified chamber. The plate was then visually inspected to determine the lowest concentration of compound at which no bacterial growth was visible. This value was considered to be the minimum inhibitory concentration (MIC) for the compound. The test was repeated using Staphylococcus aureus (strain ATCC 6538) and Pseudomonas aeruginosa (strain ATCC 9027) in place of S. mutans.
(§2) A sample of each of N-dodecanoyl-D-glucosamine, N-tetradecanoyl-D-glucosamine, and N-hexadecanoyl-D-glucosamine (0.100 g each) was emulsified in water (10 g) using a nonionic surfactant (0.9 g; PLURONIC F68, available from BASF Corp., Mount Olive, N.J.). A control sample was made by combining the nonionic surfactant (0.9 g) and water (10 g). Each of the four samples was evaluated using the Minimum Inhibitory Concentration (MIC) Test described above with S. mutans, S. aureus, and P. aeruginosa. In Table 5, “F68” refers to the nonionic surfactant used in the Comparative Examples, and “none” means that no inhibitory activity was noted.

[2] = test system: Staphylococcus aureus (strain ATCC 6538); conditions: S. aureus; compound emulsified in water with PLURONIC F68; 24 hours at 37° C.; none = no inhibitory activity noted
Protocol: as §1, §2

[3] = test system: Pseudomonas aeruginosa (strain ATCC 9027); conditions: P. aeruginosa; compound emulsified in water with PLURONIC F68; 24 hours at 37° C.; none = no inhibitory activity noted
Protocol: as §1, §2

MIC [1] | MIC [2] | MIC [3] | Compound
78 µg/mL (≈ 216 µM) | None | None | CCCCCCCCCCCC(=O)N[C@H]1C(O)O[C@H](CO)[C@@H](O)[C@@H]1O (stereo partly drawn) [N-dodecanoyl-D-glucosamine]
39 µg/mL (≈ 93.4 µM) | None | None | CCCCCCCCCCCCCCCC(=O)N[C@H]1C(O)O[C@H](CO)[C@@H](O)[C@@H]1O (stereo partly drawn) [N-hexadecanoyl-D-glucosamine]
78 µg/mL (≈ 200 µM) | None | None | CCCCCCCCCCCCCC(=O)N[C@H]1C(O)O[C@H](CO)[C@@H](O)[C@@H]1O (stereo partly drawn) [N-tetradecanoyl-D-glucosamine]
